Experimental data from US7892769B2, “Processing of EphA4 polypeptide by γ-secretase activity” (Eisai R&D Management Co., Ltd., priority 2007, dated 2011).

Tests used:
γ-secretase [1] = biological target: T1, γ-secretase (Rattus norvegicus, UniProt P97887); assay: Analysis of EphA4 processing in primary culture of rat hippocampal neurons (Western blotting, anti-EphA4 antibody); type: cell-based; details: Compound E final concentration 50 nM, one week; endogenous EphA4; vs sample untreated with Compound E; FIG. 2
T1 construct: endogenous in cells; host or cells: primary culture of hippocampal neurons from embryonic day 18 SD rats (Charles River)
Description: Whether or not EphA4 is a substrate for γ-secretase was evaluated using a primary culture of rat hippocampal neurons in the presence of a γ-secretase inhibitor. As the γ-secretase inhibitor, (2S)-2-{[(3,5-difluorophenyl)acetyl]amino}-N-[(3S)-1-methyl-2-oxo-5-phenyl-2,3-dihydro-1H-1,4-benzodiazepin-3-yl]propanamide (Compound E) (Alexis Biochemicals) was used.
The hippocampus was isolated from embryonic day 18 SD rats (Charles River) and subjected to culture. Specifically, embryos were removed aseptically from pregnant rats under etherization. The brain was removed from each embryo and dipped in 20% FBS (Hyclone)/HBSS (Sigma). The hippocampus was collected from the thus obtained brain under a stereomicroscope. The collected hippocampus was treated in an enzyme solution containing 0.25% trypsin (Invitrogen) and 0.5 mg/ml DNase (Sigma) at 35° C. for 10 minutes to disperse cells. This enzyme reaction was terminated by adding 20% FBS (Hyclone)/HBSS (Sigma). Then, 2 ml of HBSS (Sigma) was added to the resultant cells. The HBSS-added cell mass was re-dispersed by gentle pipetting. The resultant neuron suspension was diluted with a medium and plated in 10 cm dishes at an initial cell density of 1.5×10^6 cells/dish. […] Then, cells were collected with PBS and subjected to quantitative determination of protein. […]

γ-secretase [2] = biological target: T2, γ-secretase (Homo sapiens, UniProt P49768); assay: Analysis of EphA4 processing in EphA4-HA-transfected 293/EBNA-1 cell strain (Western blotting, anti-HA antibody); type: cell-based; details: 50 nM Compound E, one day; cells expressing rat EphA4 with C-terminal HA tag; vs sample untreated with Compound E; FIG. 1
T2 construct: host or cells: 293/EBNA-1 (HEK293) cells; only the substrate EphA4-HA was transfected
Description: Whether or not EphA4 is a substrate for γ-secretase was evaluated using HEK293 cells expressing EphA4 with an HA tag added to its C-terminus, in the presence of a γ-secretase inhibitor. As the γ-secretase inhibitor, (2S)-2-{[(3,5-difluorophenyl)acetyl]amino}-N-[(3S)-1-methyl-2-oxo-5-phenyl-2,3-dihydro-1H-1,4-benzodiazepin-3-yl]propanamide (hereinafter, sometimes referred to as “Compound E”) (Alexis Biochemicals) was used.
293/EBNA-1 cell strain (Invitrogen) was cultured in 10% FEB (Hyclone)/DMEM (Invitrogen) under 5% CO2 at 37° C., followed by transfection thereinto of a gene encoding rat EphA4 with an HA tag added to its C-terminus with Lipofectamine 2000 (Invitrogen). After one day culture under the same conditions, 50 nM Compound E (Alexis Biochemicals) was added to the medium. Cells were cultured for another day under the same conditions. Then, the transfected HEK293 cells were collected with PBS (Sigma) and sonicated with a sonicator (Taitec VP-5S) to disrupt cells. Then, the quantity of protein was determined with Protein Assay Kit (BioRad). […]
First, the substrate for γ-secretase is cut off its extracellular domain by other protease. […] Since reactions proceed very quickly from the first cleavage to the final degradation by proteasome, the substrate is […] when detected by Western blotting.

Question: How did the “accumulation of EphA4 C-terminal fragment (CTF) band” value (γ-secretase [1]) turn out when `C[C@H](NC(=O)Cc1cc(F)cc(F)c1)C(=O)N[C@H]1N=C(c2ccccc2)c2ccccc2N(C)C1=O` [Compound E, (2S)-2-{[(3,5-difluorophenyl)acetyl]amino}-N-[(3S)-1-methyl-2-oxo-5-phenyl-2,3-dihydro-1H-1,4-benzodiazepin-3-yl]propanamide] was run?
Answer: a band around 50 kDa (CTF) was accumulated specifically

Question: What about the “accumulation of EphA4 C-terminal fragment (CTF) band” value (γ-secretase [2]) of the same compound?
Answer: a band around 50 kDa (CTF) was accumulated specifically
